Measured values: patent publication US11524934B2, “Phenylamine compounds” (PI INDUSTRIES LTD., priority 2017, dated 2022)

Legend:
Botrytis cinerea = Botrytis cinerea (Gray mold) in vitro test, radial growth on Potato Dextrose Agar; conditions: 168 h, read-out: control
Procedure: (§1) Compounds of present invention were assessed for activity against one or more of the following: Biological Test Examples, in vitro test
Botrytis cinerea (Gray mold): Compounds were dissolved in 0.3% DMSO & then added to Potato Dextrose Agar medium just prior to dispensing it into Petri dishes. 5 ml medium with compound in the desired concentration was dispensed into 60 mm sterile Petri-plates. After solidification each plate was seeded with 5 mm size mycelial disc taken form periphery of actively growing virulent culture plate. Plates were incubated in growth chambers at 22° C. temperature & 90% Relative Humidity for seven days and radial growth was measured.

Phakopsora pachyrhizi = Phakopsora pachyrhizi test in soybean (in vivo on plants), preventive activity; conditions: preventive spray on soybean plants, inoculated one day after treatment, disease severity rated vs untreated check
Procedure: Example 8 (In Vivo on Plants): Phakopsora pachyrhizi Test in Soybean
Compounds were dissolved in 2% DMSO/Acetone & then mixed with water to the calibrated spray volume of 50 ml and poured into the spray bottles for further applications.
To test the preventive activity of compounds, healthy young soybean plants raised in the greenhouse were sprayed with active compound preparation at the stated application rates inside the spray cabinets using hallowcone nozzles. One day after treatment, the plants were inoculated with spore suspension containing 2.1×10^6 Phakopsora pachyrhizi inoculum. The inoculated plants were then kept in greenhouse chamber at 25° C. temperature & 90% Relative Humidity for disease expression.
A visual assessment of compound's performance was carried out by rating the disease severity (0-100% scale) on treated plants on 3, 7, 10 & 15 days after application. Efficacy (% control) of the compounds was calculated by comparing the disease rating in the treatment with the one of the untreated control. The sprayed plants were also assessed for compound's plant compatibility by recording symptoms like necrosis, chlorosis & stunting.

Rhizoctonia solani = conditions: 168 h, read-out: control
Procedure: Rhizoctonia solani (Rice sheath blight/Potato black scurf): Compounds were dissolved in 0.3% DMSO & then added to Potato Dextrose Agar medium just prior to dispensing it into Petri dishes. 5 ml medium with compound in the desired concentration was dispensed into 60 mm sterile Petri-plates. After solidification each plate was seeded with 5 mm size mycelial disc taken form periphery of actively growing virulent culture plate. Plates were incubated in growth chambers at 25° C. temperature & 60% Relative Humidity for seven days and radial growth was measured.

Pyricularia oryzae = assay: microbe, parasite or virus in culture; type: cell-based; conditions: 168 h, read-out: control
Septoria lycopersici = Septoria lycopersici (Leaf spot of tomato) in vitro test, radial growth on Potato Dextrose Agar; conditions: 168 h, read-out: control
Procedure: Septoria lycopersici (Leaf spot of tomato): Compounds were dissolved in 0.3% DMSO & then added to Potato Dextrose Agar medium just prior to dispensing it into Petri dishes. 5 ml medium with compound in the desired concentration was dispensed into 60 mm sterile petri-plates. After solidification each plate was seeded with 5 mm size mycelial disc taken form periphery of actively growing virulent culture plate. Plates were incubated in growth chambers at 25° C. temperature & 70% Relative Humidity for seven days and radial growth was measured.

Alternaria solani = Alternaria solani (early blight of tomato/potato) in vitro test, radial growth on Potato Dextrose Agar; conditions: 168 h, read-out: control
Procedure: as §1

Colletotrichum capsici = Colletotrichum capsici (anthracnose) in vitro test, radial growth on Potato Dextrose Agar; conditions: Colletotrichum truncatum, 168 h, read-out: control
Procedure: Colletotrichum capsici (anthracnose): Compounds were dissolved in 0.3% DMSO & then added to Potato Dextrose Agar medium just prior to dispensing it into Petri dishes. 5 ml medium with compound in the desired concentration was dispensed into 60 mm sterile petri-plates. After solidification each plate was seeded with 5 mm size mycelial disc taken form periphery of actively growing virulent culture plate. Plates were incubated in growth chambers at 25° C. temperature & 60% Relative Humidity for seven days and radial growth was measured.

Fusarium culmorum = Fusarium culmorum (Foot rot of cereals) in vitro test, radial growth on Potato Dextrose Agar; type: cell-based; conditions: 168 h, read-out: control

| SMILES | inhibition of growth at 300 ppm (Botrytis cinerea) [%] | pest or weed control at 500 ppm (Phakopsora pachyrhizi) [%] | inhibition of growth at 300 ppm (Rhizoctonia solani) [%] | inhibition of growth at 300 ppm (Pyricularia oryzae) [%] | inhibition of growth at 300 ppm (Septoria lycopersici) [%] | inhibition of growth at 300 ppm (Alternaria solani) [%] | inhibition of growth at 300 ppm (Colletotrichum capsici) [%] | inhibition of growth at 300 ppm (Fusarium culmorum) [%] |
| --- | --- | --- | --- | --- | --- | --- | --- | --- |
| CCN(C)C=Nc1cc(C)c(C(=O)COc2ccccc2)cc1C [Compound 2, N′-(2,5-dimethyl-4-(2-phenoxyacetyl)phenyl)-N-ethyl-N-methylformimidamide] | > 70 | > 90 | > 70 | > 70 | > 70 | > 70 | > 70 | 70 |
| CCN(C)C=Nc1cc(C)c(C(=O)CSc2ccc(C)c(C)c2)cc1C [Compound 11, N′-(4-(2-((3,4-dimethylphenyl)thio)acetyl)-2,5-dimethylphenyl)-N-ethyl-N-methylformimidamide] | > 70 | > 90 | > 70 | > 70 | > 70 | > 70 | > 70 | 70 |
| CCN(C)C=Nc1cc(C)c(C(=O)COc2cccc(C)c2)cc1C [Compound 12, N′-(2,5-dimethyl-4-(2-(m-tolyloxy)acetyl)phenyl)-N-ethyl-N-methylformimidamide] | > 70 | > 90 | > 70 | > 70 | > 70 | > 70 | > 70 | 70 |
| CCN(C)C=Nc1cc(C)c(C(=O)COc2cccc(Cl)c2)cc1C [Compound 13, N′-(4-(2-(3-chlorophenoxy)acetyl)-2,5-dimethylphenyl)-N-ethyl-N-methylformimidamide] | > 70 | > 90 | > 70 | > 70 | > 70 | > 70 | > 70 | 70 |
